Data: patent US10780090B2, “Heteroaryl compounds useful as inhibitors of SUMO activating enzyme” (Millennium Pharmaceuticals, Inc., priority 2014, dated 2020)

Target: recombinant human SAE enzyme (Homo sapiens (Human), UniProt Q9UBT2)
Assay: SAE HTRF enzyme assay
Format: biochemical
Conditions: for Percent Inhibition: SAE inhibition at compound concentration 0.111 μM; for IC50: SAE inhibition, class symbols, legend in nM
Procedure, shortened: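 Enzyme reaction: 50 mM HEPES pH 7.5, 5 mM MgCl2, 250 μM GSH, 0.05% BSA, 0.5 μM ATP, 0.01 μM Ubc9-GST, 0.125 μM Sumo-Flag, 0.11 nM SAE; 105 min, 24° C. Stop/detect, 2 h, then HTRF. % inh or IC50.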

recombinant human SAE enzyme, sequence (Q9UBT2 whole entry): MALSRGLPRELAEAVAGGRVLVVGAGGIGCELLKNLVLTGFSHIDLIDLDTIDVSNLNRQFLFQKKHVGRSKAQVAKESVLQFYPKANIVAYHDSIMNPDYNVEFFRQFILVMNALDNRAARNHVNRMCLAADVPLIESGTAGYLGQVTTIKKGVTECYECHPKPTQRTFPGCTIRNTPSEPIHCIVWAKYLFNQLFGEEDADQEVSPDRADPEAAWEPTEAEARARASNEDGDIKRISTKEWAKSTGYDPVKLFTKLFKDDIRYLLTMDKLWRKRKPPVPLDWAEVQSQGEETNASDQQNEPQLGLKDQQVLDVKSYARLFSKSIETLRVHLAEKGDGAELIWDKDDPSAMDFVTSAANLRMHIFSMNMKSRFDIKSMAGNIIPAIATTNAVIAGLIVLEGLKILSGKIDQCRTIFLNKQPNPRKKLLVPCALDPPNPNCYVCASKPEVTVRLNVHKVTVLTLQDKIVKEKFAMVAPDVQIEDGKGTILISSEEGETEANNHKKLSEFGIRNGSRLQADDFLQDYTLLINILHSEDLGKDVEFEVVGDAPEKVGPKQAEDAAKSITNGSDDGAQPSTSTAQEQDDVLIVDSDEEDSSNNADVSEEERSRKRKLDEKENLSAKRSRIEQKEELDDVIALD
recombinant human SAE enzyme, sequence (Q9UBE0 whole entry partner): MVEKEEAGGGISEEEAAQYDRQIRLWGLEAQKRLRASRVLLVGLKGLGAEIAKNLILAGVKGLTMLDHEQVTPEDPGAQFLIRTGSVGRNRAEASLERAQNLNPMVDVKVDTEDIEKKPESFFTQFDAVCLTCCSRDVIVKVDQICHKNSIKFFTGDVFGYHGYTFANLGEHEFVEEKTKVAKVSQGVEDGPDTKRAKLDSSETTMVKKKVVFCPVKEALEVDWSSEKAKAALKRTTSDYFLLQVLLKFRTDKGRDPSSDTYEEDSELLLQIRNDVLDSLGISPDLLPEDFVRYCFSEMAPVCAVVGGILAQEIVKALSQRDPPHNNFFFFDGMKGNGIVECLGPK

Structure (SMILES)	Percent Inhibition [%]	IC50 [nM]
Cc1sc(C(=O)c2cncnc2N[C@@H]2C[C@H](COS(N)(=O)=O)[C@@H](O)C2)cc1[C@@H]1OCCc2oc(Cl)cc21 (mixture of isomers) [I-298, [(1R,2S,4R)-4-{[5-({4-[(4R)-2-chloro-6,7-dihydro-4H-furo[3,2-c]pyran-4-yl]-5-methyl-2-thienyl}carbonyl)pyrimidin-4-yl]amino}-2-hydroxycyclopentyl]methyl sulfamate and [(1R,2S,4R)-4-{[5-({4-[(4S)-2-chloro-6,7-dihydro-4H-furo[3,2-c]pyran-4-yl]-5-methyl-2-thienyl}carbonyl)pyrimidin-4-yl]amino}-2-hydroxycyclopentyl]methyl sulfamate]	96	< 10
NS(=O)(=O)OC[C@H]1C[C@@H](Nc2ncncc2C(=O)c2cc([C@H]3OCCc4c(Cl)cccc43)cs2)C[C@@H]1O (mixture of isomers) [I-301, [(1R,2S,4R)-4-{[5-({4-[(1R)-5-chloro-3,4-dihydro-1H-isochromen-1-yl]-2-thienyl}carbonyl)pyrimidin-4-yl]amino}-2-hydroxycyclopentyl]methyl sulfamate and [(1R,2S,4R)-4-{[5-({4-[(1S)-5-chloro-3,4-dihydro-1H-isochromen-1-yl]-2-thienyl}carbonyl)pyrimidin-4-yl]amino}-2-hydroxycyclopentyl]methyl sulfamate]	99	< 10
NS(=O)(=O)OC[C@H]1C[C@@H](Nc2ncncc2C(=O)c2cc([C@H]3NCCc4ccccc43)c(Cl)s2)[C@H](O)[C@@H]1O (mixture of isomers) [I-302, [(1R,2R,3S,4R)-4-{[5-({5-chloro-4-[(1S)-1,2,3,4-tetrahydroisoquinolin-1-yl]-2-thienyl}carbonyl)pyrimidin-4-yl]amino}-2,3-dihydroxycyclopentyl]methyl sulfamate and [(1R,2R,3S,4R)-4-{[5-({5-chloro-4-[(1R)-1,2,3,4-tetrahydroisoquinolin-1-yl]-2-thienyl}carbonyl)pyrimidin-4-yl]amino}-2,3-dihydroxycyclopentyl]methyl sulfamate]	100	< 10
Cc1sc(C(=O)c2cncnc2N[C@@H]2C[C@H](COS(N)(=O)=O)[C@@H](O)C2)cc1[C@@H]1OCCc2ccc(Cl)c(F)c21 (mixture of isomers) [I-303, [(1R,2S,4R)-4-{[5-({4-[(1R)-7-chloro-8-fluoro-3,4-dihydro-1H-isochromen-1-yl]-5-methyl-2-thienyl}carbonyl)pyrimidin-4-yl]amino}-2-hydroxycyclopentyl]methyl sulfamate and [(1R,2S,4R)-4-{[5-({4-[(1S)-7-chloro-8-fluoro-3,4-dihydro-1H-isochromen-1-yl]-5-methyl-2-thienyl}carbonyl)pyrimidin-4-yl]amino}-2-hydroxycyclopentyl]methyl sulfamate]	99	< 10
CN1CCc2ccc(Cl)cc2[C@H]1c1csc(C(=O)c2cncnc2N[C@@H]2C[C@H](COS(N)(=O)=O)[C@@H](O)C2)c1 (mixture of isomers) [I-307, [(1R,2S,4R)-4-{[5-({4-[(1R)-7-chloro-2-methyl-1,2,3,4-tetrahydroisoquinolin-1-yl]-2-thienyl}carbonyl)pyrimidin-4-yl]amino}-2-hydroxycyclopentyl]methyl sulfamate and [(1R,2S,4R)-4-{[5-({4-[(1S)-7-chloro-2-methyl-1,2,3,4-tetrahydroisoquinolin-1-yl]-2-thienyl}carbonyl)pyrimidin-4-yl]amino}-2-hydroxycyclopentyl]methyl sulfamate]	95	< 10
Cc1cn2c(n1)[C@H](c1cc(C(=O)c3cncnc3N[C@@H]3C[C@H](COS(N)(=O)=O)[C@@H](O)C3)sc1C)OCC2 (mixture of isomers) [I-309, [(1R,2S,4R)-2-hydroxy-4-{[5-({5-methyl-4-[(8S)-2-methyl-5,6-dihydro-8H-imidazo[2,1-c][1,4]oxazin-8-yl]-2-thienyl}carbonyl)pyrimidin-4-yl]amino}cyclopentyl]methyl sulfamate and [(1R,2S,4R)-2-hydroxy-4-{[5-({5-methyl-4-[(8R)-2-methyl-5,6-dihydro-8H-imidazo[2,1-c][1,4]oxazin-8-yl]-2-thienyl}carbonyl)pyrimidin-4-yl]amino}cyclopentyl]methyl sulfamate]	98	< 10
Cc1sc(C(=O)c2cncnc2N[C@@H]2C[C@H](COS(N)(=O)=O)[C@@H](O)C2)cc1[C@@H]1OCCc2ccc(C#N)cc21.Cc1sc(C(=O)c2cncnc2N[C@@H]2C[C@H](COS(N)(=O)=O)[C@@H](O)C2)cc1[C@H]1OCCc2ccc(C#N)cc21 (mixture of isomers) [I-313, [(1R,2S,4R)-4-{[5-({4-[(1R)-7-cyano-3,4-dihydro-1H-isochromen-1-yl]-5-methyl-2-thienyl}carbonyl)pyrimidin-4-yl]amino}-2-hydroxycyclopentyl]methyl sulfamate and [(1R,2S,4R)-4-{[5-({4-[(1S)-7-cyano-3,4-dihydro-1H-isochromen-1-yl]-5-methyl-2-thienyl}carbonyl)pyrimidin-4-yl]amino}-2-hydroxycyclopentyl]methyl sulfamate]	94	< 10
NS(=O)(=O)OC[C@H]1C[C@@H](Nc2ncncc2C(=O)c2cc([C@@H]3OCCCc4ccc(Cl)cc43)cs2)C[C@@H]1O (mixture of isomers) [I-314, [(1R,2S,4R)-4-{[5-({4-[(1R)-8-chloro-1,3,4,5-tetrahydro-2-benzoxepin-1-yl]-2-thienyl}carbonyl)pyrimidin-4-yl]amino}-2-hydroxycyclopentyl]methyl sulfamate and [(1R,2S,4R)-4-{[5-({4-[(1S)-8-chloro-1,3,4,5-tetrahydro-2-benzoxepin-1-yl]-2-thienyl}carbonyl)pyrimidin-4-yl]amino}-2-hydroxycyclopentyl]methyl sulfamate]	95	< 10
Cc1sc(C(=O)c2cncnc2N[C@@H]2C[C@H](COS(N)(=O)=O)[C@@H](O)C2)cc1[C@@H]1OCCc2sc(C(F)(F)F)nc21 (mixture of isomers) [I-315, [(1R,2S,4R)-2-hydroxy-4-{[5-({5-methyl-4-[(4S)-2-(trifluoromethyl)-6,7-dihydro-4H-pyrano[3,4-d][1,3]thiazol-4-yl]-2-thienyl}carbonyl)pyrimidin-4-yl]amino}cyclopentyl]methyl sulfamate and [(1R,2S,4R)-2-hydroxy-4-{[5-({5-methyl-4-[(4R)-2-(trifluoromethyl)-6,7-dihydro-4H-pyrano[3,4-d][1,3]thiazol-4-yl]-2-thienyl}carbonyl)pyrimidin-4-yl]amino}cyclopentyl]methyl sulfamate]	97	< 10
Cc1sc(C(=O)c2cncnc2N[C@@H]2C[C@H](COS(N)(=O)=O)[C@@H](O)C2)cc1[C@@H]1OCCc2cnc(Cl)cc21 (mixture of isomers) [I-316, [(1R,2S,4R)-4-{[5-({4-[(1R)-7-chloro-3,4-dihydro-1H-pyrano[4,3-c]pyridin-1-yl]-5-methyl-2-thienyl}carbonyl)pyrimidin-4-yl]amino}-2-hydroxycyclopentyl]methyl sulfamate and [(1R,2S,4R)-4-{[5-({4-[(1S)-7-chloro-3,4-dihydro-1H-pyrano[4,3-c]pyridin-1-yl]-5-methyl-2-thienyl}carbonyl)pyrimidin-4-yl]amino}-2-hydroxycyclopentyl]methyl sulfamate]	94	< 10
